Source: patent US20090325975A1, “Use of compounds binding to the sigma receptor for the treatment of diabetes-associated pain” (priority 2005, published 2009)

How the values were obtained:
[1] = system: mechanical allodynia in STZ-induced mice; assay: von-Frey test, mechanical allodynia in STZ-induced diabetic mice; type: in vivo; details: paw withdrawal response to von-Frey filaments
Source text: The pancreatic β-cell cytotoxic agent STZ is widely used to induce diabetes in rodents. The glucosamine-nitrosourea compound STZ is taken up into the insulin-producing β-cells of the islets of Langerhan's via the GLUT-2 glucose transporter. The cytotoxic effect of STZ is mediated through a decrease in NAD levels, and the formation of intracellular free radicals leading to various toxic effects, including DNA-strand breaks (Schnedl et al., 1994). […] STZ-induced diabetic rodents show common features of human diabetes that include damage to the eye, kidney, blood vessels, and nervous system. Diabetic neuropathic pain occurs mainly due to the damage in the nervous system (Sima and Sugimoto, 1999).
Method: In the present study, diabetes is induced in mice by a single i.v. injection of STZ (200 mg/kg) as reported previously (Kamei et al., 1991; Rashid and Ueda, 2002). […] The plasma glucose level in the mice is measured in blood samples obtained from tail vein. […]
Thermal hyperalgesia and mechanical allodynia is measured at different time points (1-21 days) after STZ injection. Mechanical allodynia is measured using von-Frey filaments, a well-established method known by those skilled in the art, where the paw withdrawal response is measured. Similarly, thermal hyperalgesia is measured as the latency to paw withdrawal evoked by exposing the right hind paw to a thermal stimulus. […]

sigma receptor = details: result in words; cited from earlier work
sigma-1 = sigma-1 (Homo sapiens, UniProt Q99720); details: cited from earlier work
sigma-2 = sigma-2 (Homo sapiens, UniProt Q5BJF2); details: cited from earlier work
Sequence of sigma-2 (Q5BJF2 whole entry): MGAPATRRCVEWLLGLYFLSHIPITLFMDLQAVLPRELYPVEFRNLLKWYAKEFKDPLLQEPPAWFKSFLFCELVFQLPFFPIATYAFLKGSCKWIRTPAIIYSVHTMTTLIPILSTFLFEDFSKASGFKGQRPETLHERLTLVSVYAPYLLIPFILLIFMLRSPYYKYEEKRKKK

Sequence of sigma-1 (Q99720 whole entry): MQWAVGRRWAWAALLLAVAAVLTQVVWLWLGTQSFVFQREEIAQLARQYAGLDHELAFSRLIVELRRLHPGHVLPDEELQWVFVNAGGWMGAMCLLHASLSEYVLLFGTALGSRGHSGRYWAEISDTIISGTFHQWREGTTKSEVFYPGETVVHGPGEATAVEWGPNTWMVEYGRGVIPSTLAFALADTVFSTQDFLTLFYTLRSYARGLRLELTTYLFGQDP

Structure (SMILES)	effect on mechanical allodynia in the von-Frey test [1]	affinity to the sigma receptor (sigma receptor)	IC50 (sigma-1) [nM]	IC50 (sigma-2) [nM]
CN1CCN(CCc2ccc(Cl)c(Cl)c2)CC1 [BD-1063, 1-(3,4-dichlorophenethyl)-4-methylpiperazine]	significantly antagonizes mechanical allodynia	high affinity	30	800
CC(C)=CCN1CCC2(C)c3cc(O)ccc3CC1C2C (centres unmarked) [pentazocine]		very high affinity		
